Holding throughout (format): cell-based
The test system of one assay is human keratinocytes. Kind of assay: 3H-Thymidine incorporation into human keratinocytes, antiproliferative effects of vitamin D metabolites in the presence of inhibitors (test b)). Particulars: Keratinocyte; test b).
A further assay concerns the target T1, 25(OH)D3-1-hydroxylase (Homo sapiens, UniProt O15528).
T1 construct: Confluent cultures of human keratinocytes in KGM; endogenous in cells; host or cells: normal human epidermal keratinocytes (adult skin from mammary reduction), generally second passage
T1 sequence (O15528 1-508): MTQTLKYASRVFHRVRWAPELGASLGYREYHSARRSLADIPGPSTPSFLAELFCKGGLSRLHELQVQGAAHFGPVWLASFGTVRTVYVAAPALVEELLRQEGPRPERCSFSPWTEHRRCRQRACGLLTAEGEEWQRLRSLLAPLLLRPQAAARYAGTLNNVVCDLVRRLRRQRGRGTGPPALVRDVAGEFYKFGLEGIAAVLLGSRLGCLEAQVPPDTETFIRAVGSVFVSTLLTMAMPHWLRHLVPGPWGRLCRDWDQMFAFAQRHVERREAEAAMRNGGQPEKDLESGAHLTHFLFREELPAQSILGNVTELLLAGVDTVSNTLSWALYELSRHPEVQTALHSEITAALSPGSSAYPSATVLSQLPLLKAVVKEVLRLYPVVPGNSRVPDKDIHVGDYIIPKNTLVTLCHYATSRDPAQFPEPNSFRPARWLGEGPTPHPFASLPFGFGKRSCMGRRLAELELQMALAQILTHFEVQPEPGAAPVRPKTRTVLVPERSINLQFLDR
Kind of assay: Inhibition of vitamin D3-1-hydroxylase (oxidation of 3H-25(OH)D3, test a)). Particulars: for IC50: test a), human keratinocytes, 1 hour, without calcitriol pretreatment.

Assay [1] has as its target T2, 25-hydroxyvitamin D3-hydroxylases which attack the C20-27-side chain of vitamin D3 (Homo sapiens, UniProt Q07973).
T2 construct: Confluent human keratinocytes in 1 ml of KGM and in 6-well plates; endogenous in cells; host or cells: normal human epidermal keratinocytes pretreated overnight (16-17 h) with 10 nM calcitriol
T2 sequence (Q07973 36-514): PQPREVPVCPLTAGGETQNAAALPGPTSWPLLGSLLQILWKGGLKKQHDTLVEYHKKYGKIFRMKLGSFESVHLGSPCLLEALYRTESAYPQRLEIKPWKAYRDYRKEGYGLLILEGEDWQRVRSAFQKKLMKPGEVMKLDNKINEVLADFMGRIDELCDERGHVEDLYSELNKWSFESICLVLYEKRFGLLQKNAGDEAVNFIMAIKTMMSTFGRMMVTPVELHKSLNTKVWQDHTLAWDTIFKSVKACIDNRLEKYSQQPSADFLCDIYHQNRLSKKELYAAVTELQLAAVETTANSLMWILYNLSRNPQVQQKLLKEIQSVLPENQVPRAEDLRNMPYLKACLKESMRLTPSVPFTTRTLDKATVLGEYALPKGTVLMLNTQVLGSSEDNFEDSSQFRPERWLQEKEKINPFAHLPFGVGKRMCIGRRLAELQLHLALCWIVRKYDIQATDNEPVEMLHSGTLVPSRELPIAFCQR
The experiment in a line: Inhibition of side chain metabolism / vitamin D3-hydroxylases attacking the C20-27 side chain in calcitriol-pretreated keratinocytes (test a)). Particulars: for inhibition of 25-hydroxyvitamin D3-hydroxylases which attack the C20-27 side chain (in words): selectivity versus calcitriol synthesis; for IC50: test a), human keratinocytes, pretreated with 10 nM calcitriol.
Procedure: This can be determined in confluent cultures of human keratinocytes directly, while for determination of the activity of the hydroxylases attacking the C20-27--side chain a 16 hours pretreatment schedule of the confluent cultures with 1,25(OH)2 D3 (10 nM) has to precede which upregulates these activities (both methods are described in Bikle, D. D. et al., J. Clin. Invest. 78, 557 [1986]).
(§1) a) Selective inhibition of Vitamin D3--hydroxylases:
(§2) Confluent cultures of human keratinocytes in KGM at low calcium (0.06 mM) have a high capacity to produce calcitriol via the 1-hydroxylase, however, activities of sequential metabolism via side chain oxidation are almost entirely lacking. Therefore, the inhibition of the 1-hydroxylase in the confluent cultures is determined directly, and the inhibition of sequential metabolism after up-regulation of the respective hydroxylases, e.g. the 24-hydroxylase, is determined by an overnight (17 hours) pretreatment with 10 nM of calcitriol as described by Bikle et al. (1986) (supra).
(§3) The activities of the 1-hydroxylase and of particular steps in the sequential metabolism [e.g. formation of 1,24,25(OH)3 D3+1,24oxo,25(OH)2 D3] which still retain calcitriol-like activities, the formation of 3-epi calcitriol metabolites, of polar metabolites retained in the water phase and those indicative of side-chain cleavage and their inhibition by the test compounds are determined by following the oxidation of ^3 H-25(OH)D3 (Amersham; specific activity about 0.61 mCi/nmole) as follows:
(§4) Confluent human keratinocytes in 1 ml of KGM and in 6-well plates are incubated in duplicate at 37° with ^3 H-25(OH)D3 for 1 hour (1-hydroxylase), 4 hours (sequential metabolism) and for a range of time interals between 1 and 24 hours, without and after preincubation with 10 nM of calcitriol, and without and with test inhibitory compounds added in a concentration range between 0 and 10 μM. Thereafter, the reaction is stopped with 1 ml of methanol per well, the cells are scraped off, transferred to a test tube together with the supernatant and two washings (with 1 ml of methanol and 0.8 ml of water).

The mark [2] stands for this setting: in presence of 1α,25(OH)2 D3, read-out: IC50 as regards the concentration required to double the antiproliferative effect of 1α,25(OH)2 D3.
[3] abbreviates: in presence of 25(OH)D3, read-out: IC50 as regards the concentration required to double the antiproliferative effect of 25(OH)D3.
Setting [4] is: read-out: IC50 for stabilization of 3-epi 1,25(OH)2 D3 levels.
Where [5] appears, read: read-out: IC50 for stabilization of levels of the sum of 1,25(OH)2 D3, 1,24,25(OH)3D3 and 1,24oxo,25(OH)2 D3.

Read-outs that look alike come from different tables or passages of the source.

Procedure for 25(OH)D3-1-hydroxylase: Activity of the 1-hydroxylase:
as §1, §2, §3, §4
Procedure for human keratinocytes: Normal human keratinocytes are isolated from fresh adult skin obtained from mammary reduction and immediately used under sterile conditions. […] These conditions are chosen in order to avoid undefined contributions from vitamin D--metabolites possibly retained in the serum and/or feeder layer. After separation of the epidermis from the dermis with a sterile dermatome the epidermis is incubated in a 0.25% trypsin solution for 45 minutes at 37°. Thereafter the cells are scraped off and put in 50 ml of HBSS containing 10% FCS to block further trypsin digestion and centrifuged at 2000 rpm for 2 minutes. The resulting cell pellet suspended in KGM, a defined serum-free medium at low (0.06 mM) calcium concentration containing 0.1 ng/ml EGF, 5 μg/ml insulin, 0.5 μg/ml hydrocortisone, bovine pituitary extract and antibiotics (gentamycin, amphothericin) gives the primary culture. After 24 hours at 37° in an incubator with carbogen gassing (95% O2 /5% CO2) the unattached cells are removed, the flask washed and provided with fresh KGM. The culture medium is changed then every alternate day and the cells are passaged when they reach 80-90% confluency (usually 6 to 10 days after plating). For passaging old KGM is removed and the attached keratinocytes displaced by a short treatment (5 minutes) with 0.125% of trypsin, then put into HBSS+FCS, centrifuged and eventually resuspended in KGM in such a way that 1 plate of primary culture yields 3 plates first passage cells. In order to expand the final cell number keratinocytes are further cultivated as described above and generally used in their second passage.
^3 H-Thymidine incorporation is measured in 96-well plates as follows: Keratinocytes in 200 μl of KGM at low calcium concentration are plated at an initial density of 10^4 cells per well (second passage) and kept for 24 hours at 37° in an incubator with carbogen gassing (95% O2 /5% CO2). […]
Harvesting is done on a Filtermate 196-Harvester (Packard-Canberra). […] 50 μl of scintillation cocktail (MicroScint O, Packard) are added and ^3 H-activity is counted on a Microplate Scintillation Counter (Topcount, Packard Canberra).
Data are used as means ±SEM (n=3). The IC50 -values for the inhibition of proliferation by the vitamin D--metabolites in the presence of varying concentrations of inhibitors of side chain metabolism and vice versa are assessed by plotting the inverse proliferation rate versus one inhibitor concentration, with the concentration of the other inhibitors kept constant (Dixon Plot). Independent of the mechanism of inhibition the IC50 -values can be read in this plot from the intercept on the x-axis.

In the case of `O=C(NC[C@H](c1ccccc1)n1ccnc1)c1ccc(-c2ccc(Cl)cc2)cc1` [Example 8, N-[4-(4-Chlorophenyl)benzoyl]-2-(1H-imidazol-1-yl)-2(S)-phenyl-1-aminoethane], the IC50 in the assay on human keratinocytes (setting [2]) amounted to 30 nM; with human keratinocytes (setting [3]), 11 nM; on 25(OH)D3-1-hydroxylase, 530 nM; in assay [1] (setting [4]), 40 nM; in assay [1] (setting [5]) it was 45 nM. Moreover, the “interference with calcitriol synthesis via the 25(OH)D3-1-hydroxylase (in words)” value on 25(OH)D3-1-hydroxylase is listed as “without interfering with its synthesis”. Also, the “inhibition of 25-hydroxyvitamin D3-hydroxylases which attack the C20-27 side chain (in words)” value in assay [1] is “selective inhibitors”.

As to `O=C(NC[C@@H](c1ccccc1)n1ccnc1)c1ccc(-c2ccc(Cl)cc2)cc1` [Example 9, N-[4-(4-Chlorophenyl)benzoyl]-2-(1H-imidazol-1-yl)-2(R)-phenyl-1-aminoethane], the IC50 in the assay on human keratinocytes (setting [2]) was found to be 35 nM; in the assay with human keratinocytes (setting [3]), 12 nM; on 25(OH)D3-1-hydroxylase, 620 nM; in assay [1] (setting [4]), 12 nM; in assay [1] (setting [5]), 19 nM. Moreover, the “interference with calcitriol synthesis via the 25(OH)D3-1-hydroxylase (in words)” value at 25(OH)D3-1-hydroxylase was “without interfering with its synthesis”. For the same compound, in assay [1], the “inhibition of 25-hydroxyvitamin D3-hydroxylases which attack the C20-27 side chain (in words)” value is given as “selective inhibitors”.

Source of the values: patent US5622982A, “Acylated aminoalkanimidazoles and - triazoles” (Sandoz Ltd., priority 1994, dated 1997).
